From patent US5912161A, “Enzymes for the production of 2-keto-L-gulonic acid” (priority 1996, dated 1999)

Columns and labels:
[1] = target: T1, Corynebacterium sp. (ATCC 31090) 2,5-DKG reductase A, wild type, SEQ ID NO:1 (Corynebacterium sp., UniProt P06632); test: Kinetic characterization of purified wild-type 2,5-DKG reductase A (NADPH oxidation at 340 nm); assay type: biochemical; conditions: wild-type enzyme, 50 mM tris, pH 7.0, 0.2 mM NADPH, 25° C.
T1 construct: made in house; host or cells: Acetobacter cerinus
Description: (§1) The preparations of wild-type and mutant Q192R 2,5-DKG reductase A enzymes were characterized kinetically as to their ability to reduce the substrate 2,5-DKG to 2-KLG. Assays were done in 1 ml total volume of 50 mM tris, pH 7.0, containing 0.2 mM NADPH, a constant amount of enzyme ([…]) and amounts of substrate varying from 2 to 14 mM. The assays were done at 25° C., and the rate of substrate reduction was measured spectrophotometrically by measuring the loss of absorbance at 340 nm wavelength (which is indicative of the oxidation of the cofactor NADPH to NADP+).
(§2) The data were analyzed according to the well-known Michaelis equation to determine the kinetic parameters Vmax and Km using the Enzfit software package (Biosoft, Cambridge, UK) on a Epson desktop computer.

[2] = target: T2, Corynebacterium sp. 2,5-DKG reductase A mutant Q192R (arginine for glutamine at position 192) (Corynebacterium sp., UniProt P06632, Q192R); test: Kinetic characterization of purified mutant Q192R 2,5-DKG reductase A (NADPH oxidation at 340 nm); assay type: biochemical; conditions: 50 mM tris, pH 7.0, 0.2 mM NADPH, 25° C.
T2 construct: made in house; host or cells: Acetobacter cerinus
Description: as §1, §2

T1 sequence (P06632 whole entry): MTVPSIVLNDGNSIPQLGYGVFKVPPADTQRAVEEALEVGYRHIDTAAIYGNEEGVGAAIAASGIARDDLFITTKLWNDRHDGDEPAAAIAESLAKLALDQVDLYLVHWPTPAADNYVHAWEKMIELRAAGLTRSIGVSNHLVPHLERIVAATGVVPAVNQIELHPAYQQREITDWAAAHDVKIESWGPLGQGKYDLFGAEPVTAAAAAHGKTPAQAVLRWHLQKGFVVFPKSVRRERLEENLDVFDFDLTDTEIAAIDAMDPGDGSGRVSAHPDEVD
T2 sequence (P06632 whole entry Q192R): as the sequence (P06632 whole entry) above, with Q192R counted along it

SMILES: O=C(O)C(=O)[C@@H](O)[C@H](O)C(=O)CO [2,5-DKG, 2,5-diketo-D-gluconic acid]
- specificity constant (kcat/Km) [1]: 140 M⁻¹ s⁻¹
- Vmax for the 2,5-DKG substrate ([1]; substrate 2 to 14 mM): 7.8 μmoles per minute per milligram of protein
- Km ([1]; substrate 2 to 14 mM, read-out: Km or Michaelis constant): 28 mM
- specificity constant (kcat/Km) [2]: 335 M⁻¹ s⁻¹
- Km ([2]; substrate 2 to 14 mM): 21 mM
- Vmax for the 2,5-DKG substrate ([2]; substrate 2 to 14 mM): 14.0 μmoles per minute per milligram of protein
